In brackets after ≈: the same amount, converted by molar mass.
Columns and labels:
M. tuberculosis H37Rv = experiment: Minimum inhibitory concentration (IC90) against fluorescent M. tuberculosis in liquid culture; conditions: for IC90: read-out: MTB IC90; for IC90 / MTB IC90: concentration required to inhibit M. tuberculosis growth by 90%, aerobic culture, 5 days, 7H9-OADC-Tw
HepG2 human liver cells = experiment: Cytotoxicity against HepG2 cells (CellTiter-Glo); type: cell-based; conditions: concentration required to inhibit growth of HepG2 cells by 50%, 72 h exposure
Description: Cytotoxicity was measured after 72 h of compound exposure at 37°C and 5% CO2 using CellTiter-Glo (Promega).

[1] = MTB IC90 assay, Figure 1 primary hits and reference drugs in this assay

Row | Molecule | IC90 (M. tuberculosis H37Rv) [µM] | MIC (M. tuberculosis H37Rv; [1]) [µM] | IC50 (HepG2 human liver cells; Homo sapiens, HepG2, 72 h) [µM] | melting point [°C] | other results
1 | 5-Cyclopentyl-2-(Pyridin-2-yl)-6-(Trifluoromethyl)Pyrimidin-4(3H)-One [Compound 57] | 10 ± 2.6 |  |  |  | IC50 (HepG2 human liver cells): 5.9 ± 0.57 µM
2 | O=C1c2ccccc2-c2nn3c(=O)cc(C(F)(F)F)nc3nc21 [Compound 1] |  | 3.1 ± 0.49 (≈ 0.986 µg/mL) |  |  | 
3 | CCCCc1c(C(F)(F)F)nc(-c2ccccn2)[nH]c1=O [Compound 2] |  | 6.8 ± 2.0 (≈ 2.02 µg/mL) | 5.3 ± 1.2 |  | 
4 | Cc1c(C(F)(F)F)nc(-c2cc(COc3ccc(O)cc3)ccn2)[nH]c1=O [Compound 3] | 7.6 ± 0.85 | 7.6 ± 0.85 (≈ 2.87 µg/mL) | 7.4 ± 0.28 |  | 
5 | O=c1cc(C(F)(F)F)nc(-c2cc(CCc3ccc(O)cc3)ccn2)[nH]1 [Compound 4] |  | 4.2 ± 2.1 (≈ 1.52 µg/mL) |  |  | 
6 | O=c1cc(C(F)(F)F)nc(-c2cc(OCc3ccccc3)ccn2)[nH]1 [Compound 6] | 1.3 ± 0.21 | 1.3 ± 0.21 (≈ 0.451 µg/mL) | 2.5 ± 0.78 |  | 
7 | COC(=O)Cc1ccc(OCc2ccnc(-c3nc(C(F)(F)F)cc(=O)[nH]3)c2)cc1 [Compound 7] | 3.3 ± 0.71 | 3.3 ± 0.71 (≈ 1.38 µg/mL) | 7.1 ± 0.14 |  | 
8 | N#Cc1ccc(COc2ccnc(-c3nc(C(F)(F)F)cc(=O)[nH]3)c2)cc1 [Compound 9] | 3.7 ± 0.85 | 3.7 ± 0.85 (≈ 1.38 µg/mL) | 6.1 ± 2.1 |  | 
9 | O=c1[nH]c(-c2ccccn2)nc(C(F)(F)F)c1CC1CC1 [Compound 11] | 7.9 ± 2.1 | 7.9 ± 2.1 (≈ 2.33 µg/mL) | 11 ± 4.7 |  | 
10 | CCOC(=O)CCCc1c(C(F)(F)F)nc(-c2ccccn2)[nH]c1=O [Compound 12] | 3.1 ± 0.57 | 3.1 ± 0.57 (≈ 1.1 µg/mL) | 10 ± 4.3 |  | 
11 | CCCc1c(C(F)(F)F)nc(-c2ccccn2)[nH]c1=O [Compound 13] | 10 ± 1.3 | 10 ± 1.3 (≈ 2.83 µg/mL) | 12 ± 1.4 |  | 
12 | CC(C)Cc1c(C(F)(F)F)nc(-c2ccccn2)[nH]c1=O [Compound 14] | 5.8 ± 1.3 | 5.8 ± 1.3 (≈ 1.72 µg/mL) | 7.5 ± 1.3 |  | 
13 | N#Cc1ccc(OCc2ccnc(-c3nc(C(F)(F)F)cc(=O)[nH]3)c2)cc1 [Compound 15] | 5.3 ± 1.3 | 5.3 ± 1.3 (≈ 1.97 µg/mL) | 7.4 ± 1.6 |  | 
14 | O=c1cc(C(F)(F)F)nc(-c2ccccn2)[nH]1 [Compound 16, 2-(Pyridin-2-yl)-6-(Trifluoromethyl)Pyrimidin-4(3H)-One] | 4.9 ± 0.79 |  | > 100 |  | HepG2 IC50 (HepG2 human liver cells): lacked cytotoxicity
15 | O=c1cc(C(F)(F)F)nc(-c2ncccc2O)[nH]1 [Compound 17, 2-(3-Hydroxypyridin-2-yl)-6-(Trifluoromethyl)Pyrimidin-4(3H)-One] | 3.3 ± 1.1 |  | 16 ± 7.6 |  | 
16 | O=c1cc(C(F)(F)F)nc(-c2ncccn2)[nH]1 [Compound 18, 6-(Trifluoromethyl)-[2,2′-Bipyrimidin]-4(3H)-One] | > 20 |  | > 100 | 236 to 238 | MTB IC90 (M. tuberculosis H37Rv): abolished activity; HepG2 IC50 (HepG2 human liver cells): abolished activity and cytotoxicity
17 | COc1cccnc1-c1nc(C(F)(F)F)cc(=O)[nH]1 [Compound 19, 2-(3-Methoxypyridin-2-yl)-6-(Trifluoromethyl)Pyrimidin-4(3H)-One] | > 20 |  | > 100 | 178 to 179 | 
18 | O=c1cc(C(F)(F)F)nc(-c2cccnc2)[nH]1 [Compound 20, 2-(Pyridin-3-yl)-6-(Trifluoromethyl)Pyrimidin-4(3H)-One] | > 20 |  | > 100 | 276 to 277 | 
19 | O=c1cc(C(F)(F)F)nc(-c2ncccc2Cl)[nH]1 [Compound 21, 2-(3-Chloropyridin-2-yl)-6-(Trifluoromethyl)Pyrimidin-4(3H)-One] | > 20 |  | > 100 |  | 
20 | Cc1c(C(F)(F)F)nc(-c2cccnc2)[nH]c1=O [Compound 22, 5-Methyl-2-(Pyridin-3-yl)-6-(Trifluoromethyl)Pyrimidin-4(3H)-One] | > 20 |  | > 100 | 213 to 215 | 

Row | Molecule | IC90 (M. tuberculosis H37Rv) [µM] | MIC (M. tuberculosis H37Rv; [1]) [µM] | IC50 (HepG2 human liver cells; Homo sapiens, HepG2, 72 h) [µM] | melting point [°C] | other results
21 | Cc1c(C(F)(F)F)nc(-c2ccncc2)[nH]c1=O [Compound 23, 5-Methyl-2-(Pyridin-4-yl)-6-(Trifluoromethyl)Pyrimidin-4(3H)-One] | > 20 |  | > 100 | 228 to 230 | 
22 | O=c1cc(C(F)(F)F)nc(-c2ccccc2)[nH]1 [Compound 24, 2-Phenyl-6-(Trifluoromethyl)Pyrimidin-4(3H)-One] | > 20 |  | > 100 | 225 to 227 | 
23 | O=c1cc(C(F)(F)F)nc(-c2ccccc2OC(F)(F)F)[nH]1 [Compound 25] | > 20 |  | > 100 |  | 
24 | O=c1cc(C(F)(F)F)nc(-c2ncccc2F)[nH]1 [Compound 26, 2-(3-Fluoropyridin-2-yl)-6-(Trifluoromethyl)Pyrimidin-4(3H)-One] | > 20 |  | > 100 |  | 
25 | O=c1cc(C(F)(F)F)nc(C2CCCCC2)[nH]1 [Compound 27, 2-Cyclohexyl-6-(Trifluoromethyl)Pyrimidin-4(3H)-One] | > 20 |  | 90 ± 17 | 198 to 199 | 
26 | O=c1cc(C(F)(F)F)nc(-c2ccccc2F)[nH]1 [Compound 28, 2-(2-Fluorophenyl)-6-(Trifluoromethyl)Pyrimidin-4(3H)-One] | > 20 |  | > 100 | 168 to 169 | 
27 | Cc1cccc(C)c1-c1nc(C(F)(F)F)cc(=O)[nH]1 [Compound 29, 2-(2,6-Dimethylphenyl)-6-(Trifluoromethyl)Pyrimidin-4(3H)-One] | > 20 |  | > 100 | 201 to 202 | 
28 | Cc1ccccc1-c1nc(C(F)(F)F)cc(=O)[nH]1 [Compound 30, 2-(o-Tolyl)-6-(Trifluoromethyl)Pyrimidin-4(3H)-One] | > 20 |  | > 100 | 155 to 156 | 
29 | O=c1cc(C(F)(F)F)nc(-c2ccccc2O)[nH]1 [Compound 31, 2-(2-Hydroxyphenyl)-6-(Trifluoromethyl)Pyrimidin-4(3H)-One] | > 20 |  | 79 ± 7.8 | 236 to 238 | 
30 | Cc1c(C(F)(F)F)nc[nH]c1=O [Compound 32, 5-Methyl-6-(Trifluoromethyl)Pyrimidin-4(3H)-One] | > 20 |  | > 100 | 183 to 185 | MTB IC90 (M. tuberculosis H37Rv): no antibacterial activity
31 | COc1ccccc1-c1nc(C(F)(F)F)c(C)c(=O)[nH]1 [Compound 34, 2-(2-Methoxyphenyl)-5-Methyl-6-(Trifluoromethyl)Pyrimidin-4(3H)-One] |  |  | 95 ± 9.5 | 158 to 160 | 
32 | Cc1c(C(F)(F)F)nc(-c2ccccc2)[nH]c1=O [Compound 35, 5-Methyl-2-Phenyl-6-(Trifluoromethyl)Pyrimidin-4(3H)-One] | > 20 |  | > 100 | 256 to 259 | 
33 | Cc1c(C(F)(F)F)nc(-c2ncccc2Cl)[nH]c1=O [Compound 38, 2-(3-Chloropyridin-2-yl)-5-Methyl-6-(Trifluoromethyl)Pyrimidin-4(3H)-One] | > 20 |  | > 100 |  | 
34 | Cc1c(C(F)(F)F)nc(-c2ncccc2F)[nH]c1=O [Compound 45, 2-(3-Fluoropyridin-2-yl)-5-Methyl-6-(Trifluoromethyl)Pyrimidin-4(3H)-One] | > 20 |  | > 100 |  | 
35 | Cc1nc(-c2ccccn2)[nH]c(=O)c1C [Compound 49, 5,6-Dimethyl-2-(Pyridin-2-yl)Pyrimidin-4(3H)-One] | > 20 |  | 88 ± 6.9 |  | 
36 | COc1c(C(F)(F)F)nc(-c2ccccn2)[nH]c1=O [Compound 56, 5-Methoxy-2-(Pyridin-2-yl)-6-(Trifluoromethyl)Pyrimidin-4(3H)-One] | 6.1 ± 0.26 |  | 5 ± 0.82 |  | 
37 | CC[C@@H](CO)NCCN[C@@H](CC)CO [ethambutol, reference compound] |  | 3.3 ± 0.4 (≈ 0.674 µg/mL) |  |  | 
38 | NNC(=O)c1ccncc1 [isoniazid, reference compound] |  | 0.6 ± 0.2 (≈ 0.0823 µg/mL) |  |  | 
39 | CO[C@H]1/C=C/O[C@@]2(C)Oc3c(C)c(O)c4c(O)c(c(/C=N/N5CCN(C)CC5)c(O)c4c3C2=O)NC(=O)/C(C)=C\C=C\[C@H](C)[C@H](O)[C@@H](C)[C@@H](O)[C@@H](C)[C@H](OC(C)=O)[C@@H]1C [rifampicin, reference compound] |  |  |  |  | MIC (M. tuberculosis H37Rv; reference drug in this assay): 0.008 ± 0.0002 µM (≈ 0.00658 µg/mL)
